Assay results: the supplement of paper PMC11061612

Key:
Test in all cases: combination Emax (second highest fraction inhibited in the dose matrix, 72 h); higher = more inhibition; extreme values may be limits of the assay
MG-63 (Osteosarcoma) = system: MG-63 (Osteosarcoma)
Procedure, shortened: (§1)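 Cell lines grown in DMEM/F12 or RPMI with 10% FBS were plated in 1536-well plates and held 24 hours at 37°C, 5% CO2 before 72 hours of exposure to two-drug dose matrices, with DMSO typically at 0.2%. CellTiter-Glo 2.0 luminescence gave viability, which was converted to inhibition. Vehicle wells were set to 0 and blank wells to 1. Combination Emax is the second-highest inhibition in the matrix, and Bliss excess is the observed combination effect minus the expected EA + EB − EA·EB, where EA and EB are the single-agent effects.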

[1] = system: L-363 (Plasma Cell Myeloma)
Procedure, shortened: as §1

[2] = system: MDA-MB-175-VII (Breast Carcinoma)
Procedure, shortened: as §1

NCI-H2452 (Mesothelioma) = system: NCI-H2452 (Mesothelioma)
Procedure, shortened: as §1

[3] = system: OVKATE (Ovarian Carcinoma)
Procedure, shortened: as §1

[4] = system: BC-1 (B-Cell Non-Hodgkin's Lymphoma)
Procedure, shortened: as §1

[5] = system: NCI-H2023 (Non-Small Cell Lung Carcinoma)
Procedure, shortened: as §1

[6] = system: NCI-H2009 (Lung Adenocarcinoma)
Procedure, shortened: as §1

[7] = system: RPMI-8402 (T-Lymphoblastic Leukemia)
Procedure, shortened: as §1

GCIY (Gastric Carcinoma) = system: GCIY (Gastric Carcinoma)
Procedure, shortened: as §1

SK-N-DZ (Neuroblastoma) = system: SK-N-DZ (Neuroblastoma)
Procedure, shortened: as §1

[8] = system: SNU-1 (Gastric Carcinoma)
Procedure, shortened: as §1

[9] = system: C2BBe1 (Colorectal Carcinoma)
Procedure, shortened: as §1

[10] = system: SCC90 (Head and Neck Carcinoma)
Procedure, shortened: as §1

[11] = system: NCI-H1944 (Lung Adenocarcinoma)
Procedure, shortened: as §1

[12] = system: HT-1197 (Bladder Carcinoma)
Procedure, shortened: as §1

[13] = system: JURL-MK1 (Chronic Myelogenous Leukemia)
Procedure, shortened: as §1

DK-MG (Glioblastoma) = system: DK-MG (Glioblastoma)
Procedure, shortened: as §1

[14] = system: TOV-21G (Ovarian Carcinoma)
Procedure, shortened: as §1

[15] = system: Daudi (Burkitt's Lymphoma)
Procedure, shortened: as §1

Row | SMILES | combination Emax (MG-63 (Osteosarcoma)) | combination Emax [1] | combination Emax [2] | combination Emax (NCI-H2452 (Mesothelioma)) | combination Emax [3] | combination Emax [4] | combination Emax [5] | combination Emax [6] | combination Emax [7] | combination Emax (GCIY (Gastric Carcinoma)) | combination Emax (SK-N-DZ (Neuroblastoma)) | combination Emax [8] | combination Emax [9] | combination Emax [10] | combination Emax [11] | combination Emax [12] | combination Emax [13] | combination Emax (DK-MG (Glioblastoma)) | combination Emax [14] | combination Emax [15]
1 | N#Cc1cnc(Nc2cc(NC[C@H]3CNCCO3)c(C(F)(F)F)cn2)cn1 [SRA737] + Nc1ccn([C@@H]2O[C@H](CO)[C@@H](O)C2(F)F)c(=O)n1 [Gemcitabine] (first compound max 10 µM, 7x7, partner max 0.3 µM) | 0.988 | 0.986 | 0.519 | 0.737 | 0.27 | 0.979 | 0.708 | 0.785 | 1 | 0.78 |  |  |  |  |  |  |  |  |  | 
2 | C=CCn1c(=O)c2cnc(Nc3ccc(N4CCN(C)CC4)cc3)nc2n1-c1cccc(C(C)(C)O)n1 [AZD1775] + C1CN(CCC1(C(=O)N[C@@H](CCO)C2=CC=C(C=C2)Cl)N)C3=NC=NC4=C3C=CN4 [Capivasertib] (first compound max 3 µM, partner max 3 µM) | 0.668 | 0.939 | 0.506 | 0.816 | 0.322 | 0.97 | 0.652 | 0.883 | 1 | 0.668 | 0.921 | 0.727 | 0.533 | 0.668 | 0.861 | 0.543 | 0.986 | 0.485 | 0.85 | 
3 | COc1cc2c(cc1OCCCCCOc1cc3c(cc1OC)C(=O)N1C=C(C)C[C@H]1C=N3)N=C[C@@H]1CC(C)=CN1C2=O [SG3199] + O=C(c1cc(Cc2n[nH]c(=O)c3ccccc23)ccc1F)N1CCN(C(=O)C2CC2)CC1 [Olaparib] (first compound max 0.001 µM, 7x7, partner max 10 µM) | 0.198 | 0.0669 | 0.0059 | 0.155 | 0.0519 | 0.181 | 0.173 | 0.144 | 0.435 | 0.258 | 0.358 | 0.353 | 0.0966 | 0.173 | 0.192 | 0.166 | 0.418 | 0.099 | 0.195 | 0.245
4 | CN(CCO)CC[C@H](CSc1ccccc1)Nc1ccc(S(=O)(=O)NC(=O)c2ccc(N3CCC([C@@H](O)c4ccccc4-c4ccc(Cl)cc4)CC3)cc2)cc1S(=O)(=O)C(F)(F)F [AZD4320] + C[C@@H](Nc1cc(F)cc(F)c1)c1cc(C(=O)N(C)C)cc2c(=O)cc(N3CCOCC3)oc12 [AZD8186] (first compound max 1 µM, 7x7, partner max 3 µM) | 0.375 | 0.249 | 0.453 | 0.364 | 0.438 | 0.461 | 0.351 | 0.553 | 0.994 | 0.719 | 0.868 | 0.877 | 0.461 | 0.557 | 0.767 | 0.319 | 0.871 | 0.557 | 0.37 | 0.771
5 | Cc1cc2ncnn2cc1Nc1ncc2c(n1)n(C1CCOCC1)c(=O)n2C [AZD7648] + O=C(c1cc(Cc2n[nH]c(=O)c3ccccc23)ccc1F)N1CCN(C(=O)C2CC2)CC1 [Olaparib] (first compound max 10 µM, 7x7, partner max 10 µM) | 0.53 | 0.231 | 0.142 | 0.266 | 0.148 | 0.385 | 0.38 | 0.137 | 0.561 | 0.342 | 0.278 | 0.446 | 0.218 | 0.188 | 0.246 | 0.216 | 0.543 | 0.262 | 0.16 | 0.446
6 | N#Cc1cnc(Nc2cc(NC[C@H]3CNCCO3)c(C(F)(F)F)cn2)cn1 [SRA737] + CCc1c2c(nc3ccc(O)cc13)-c1cc3c(c(=O)n1C2)COC(=O)[C@]3(O)CC [SN-38] (first compound max 10 µM, 7x7, partner max 0.3 µM) | 0.953 | 0.878 | 0.63 | 0.787 | 0.138 | 0.952 | 0.747 | 0.768 | 1 | 0.85 |  |  |  |  |  |  |  |  |  | 
7 | N#Cc1cnc(Nc2cc(NC[C@H]3CNCCO3)c(C(F)(F)F)cn2)cn1 [SRA737] + O=c1[nH]cc(F)c(=O)[nH]1 [5-Fluorouracil] (first compound max 10 µM, 7x7, partner max 20 µM) | 0.492 | 0.934 | 0.21 | 0.513 | 0.147 | 0.739 | 0.689 | 0.444 | 1 | 0.505 |  |  |  |  |  |  |  |  |  | 
8 | CN(CCO)CC[C@H](CSc1ccccc1)Nc1ccc(S(=O)(=O)NC(=O)c2ccc(N3CCC([C@@H](O)c4ccccc4-c4ccc(Cl)cc4)CC3)cc2)cc1S(=O)(=O)C(F)(F)F [AZD4320] + Cc1cc2ncnn2cc1Nc1ncc2c(n1)n(C1CCOCC1)c(=O)n2C [AZD7648] (first compound max 1 µM, 7x7, partner max 10 µM) | 0.179 | 0.211 | 0.274 | 0.386 | 0.303 | 0.509 | 0.318 | 0.0699 | 0.929 | 0.609 | 0.651 | 0.463 | 0.383 | 0.448 | 0.464 | 0.261 | 0.827 | 0.261 | 0.209 | 0.22
9 | Cc1cc2ncnn2cc1Nc1ncc2c(n1)n(C1CCOCC1)c(=O)n2C [AZD7648] + COc1cc([C@@H]2c3cc4c(cc3[C@@H](O[C@@H]3O[C@@H]5CO[C@@H](C)O[C@H]5[C@H](O)[C@H]3O)[C@H]3COC(=O)[C@H]23)OCO4)cc(OC)c1O [Etoposide] (first compound max 10 µM, 7x7, partner max 10 µM) | 0.874 | 0.702 | 0.399 | 0.355 | 0.266 | 0.984 | 0.621 | 0.824 | 1 | 0.759 |  |  |  |  |  |  |  |  |  | 
10 | CN(CCO)CC[C@H](CSc1ccccc1)Nc1ccc(S(=O)(=O)NC(=O)c2ccc(N3CCC([C@@H](O)c4ccccc4-c4ccc(Cl)cc4)CC3)cc2)cc1S(=O)(=O)C(F)(F)F [AZD4320] + CCN(CCO)CCCOc1ccc2c(Nc3cc(CC(=O)Nc4cccc(F)c4)[nH]n3)ncnc2c1 [AZD2811] (first compound max 1 µM, 7x7, partner max 1 µM) | 0.86 | 0.135 | 0.413 | 0.364 | 0.347 | 0.662 |  | 0.224 | 0.999 | 0.554 | 0.787 | 0.541 | 0.224 | 0.715 | 0.584 | 0.241 | 0.929 | 0.255 | 0.476 | 0.351
11 | CN(CCO)CC[C@H](CSc1ccccc1)Nc1ccc(S(=O)(=O)NC(=O)c2ccc(N3CCC([C@@H](O)c4ccccc4-c4ccc(Cl)cc4)CC3)cc2)cc1S(=O)(=O)C(F)(F)F [AZD4320] + CC(=O)O[C@H]1C(=O)[C@@]2(C)[C@H]([C@H](OC(=O)c3ccccc3)[C@]3(O)C[C@H](OC(=O)[C@H](O)[C@@H](NC(=O)c4ccccc4)c4ccccc4)C(C)=C1C3(C)C)[C@]1(OC(C)=O)CO[C@@H]1C[C@@H]2O [Paclitaxel] (first compound max 1 µM, 7x7, partner max 3 µM) | 1 | 1 | 0.766 | 0.983 | 0.629 | 1 | 0.776 | 0.933 | 1 | 0.952 |  |  |  |  |  |  |  |  |  | 
12 | CN(CCO)CC[C@H](CSc1ccccc1)Nc1ccc(S(=O)(=O)NC(=O)c2ccc(N3CCC([C@@H](O)c4ccccc4-c4ccc(Cl)cc4)CC3)cc2)cc1S(=O)(=O)C(F)(F)F [AZD4320] + Nc1ccn([C@@H]2O[C@H](CO)[C@@H](O)C2(F)F)c(=O)n1 [Gemcitabine] (first compound max 1 µM, 7x7, partner max 0.3 µM) | 0.973 | 0.458 | 0.824 | 0.355 | 0.246 | 0.974 | 0.884 | 0.505 | 1 | 0.782 |  |  |  |  |  |  |  |  |  | 
13 | N#Cc1cnc(Nc2cc(NC[C@H]3CNCCO3)c(C(F)(F)F)cn2)cn1 [SRA737] + C=CCn1c(=O)c2cnc(Nc3ccc(N4CCN(C)CC4)cc3)nc2n1-c1cccc(C(C)(C)O)n1 [AZD1775] (first compound max 10 µM, partner max 1 µM) | 0.867 | 0.937 | 0.276 | 0.722 | 0.222 | 0.988 | 0.594 | 0.82 | 1 | 0.611 |  |  |  |  |  |  |  |  |  | 
14 | C[C@@H](c1ccc2nccn2c1)n1nnc2ncc(-c3cnn(C)c3)nc21 [Savolitinib] + CN(CC[C@H](CSC1=CC=CC=C1)NC2=C(C=C(C=C2)S(=O)(=O)NC(=O)C3=CC=C(C=C3)N4CCC(CC4)[C@H](C5=CC=CC=C5C6=CC=C(C=C6)Cl)O)S(=O)(=O)C(F)(F)F)CCO [AZD4320] (first compound max 1 µM, 7x7, partner max 1 µM) |  |  |  |  |  |  |  |  |  |  | 0.784 | 0.417 | 0.187 | 0.502 | 0.369 | 0.255 | 0.889 | 0.37 | 0.227 | 0.188
